The record followed here is ChEMBL document CHEMBL3407355, “Understanding the importance of glycosylated threonine and stereospecific action of Drosocin, a Proline rich antimicrobial peptide” (Eur J Med Chem, 2015).

≈ marks a conversion by molar mass, not a printed value. Calls of active or inactive are those of the source. The rule behind the calls is not given here. Where a SMILES comes first, the peptide text is derived from it. The star is where a group is joined. αGalNAc = CC(=O)N[C@@H]1[C@@H](O)[C@@H](O)[C@@H](CO)O[C@@H]1*; X1 = CC(=O)N[C@H]1[C@H](O)[C@H](O)[C@H](CO)O[C@H]1*

In series [1] the test system is Salmonella typhi. The experiment in a line: Antimicrobial activity against Salmonella typhi Vi+ by broth microdilution assay. It counts as functional, Salmonella enterica subsp. enterica serovar Typhi. To be noted: Salmonella enterica. (Broth dilution looks for growth in wells or tubes with falling amounts of substance.)
Series [2] has as its system Escherichia coli. Briefly: Antimicrobial activity against Escherichia coli ATCC 11775 by broth microdilution assay. It counts as functional.
In series [3] the test system is Escherichia coli. Briefly: Antimicrobial activity against Escherichia coli ATCC 35218 by broth microdilution assay. It counts as functional.
Series [4] concerns Escherichia coli. The experiment in a line: Drug uptake in Escherichia coli ATCC 25922 assessed as cellular internalization after 30 mins by FACS analysis. It counts as ADME, organism-based. Particulars: in vivo, 0.5 h. Background: A flow cytometer gives signals particle by particle.
In series [5] the test system is Escherichia coli. The experiment in a line: Binding affinity to Escherichia coli His-tagged recombinant […] binding domain of DnaK assessed as rate constant by […] Plasmon resonance assay.
Series [6] can be described thus: Binding affinity to Escherichia coli His-tagged recombinant […] binding domain of DnaK by […] Plasmon resonance assay.
The test system of series [7] is Escherichia coli. The experiment in a line: In-vitro inhibition of luciferase reporter gene translation in Escherichia coli S30 extract at 200 ng by transcription/translation assay. It counts as functional. Background: A reporter such as luciferase makes a cellular process visible.
Series [8] deals with Escherichia coli. The experiment in a line: Antimicrobial activity against Escherichia coli ATCC 25922 by broth microdilution assay. It counts as functional.
For series [9], the system named is Escherichia coli. Briefly: Inhibition of RNA biosynthesis in Escherichia coli ATCC 25922 assessed as incorporation of [3H]uridine into RNA at 10 times of MIC concentration by in-vivo transcription assay. It counts as functional, organism-based.
Series [10] relates to Escherichia coli. The experiment in a line: Inhibition of protein biosynthesis in Escherichia coli ATCC 25922 assessed as incorporation of [35S]methionine into protein at 10 times of MIC concentration by in-vivo translation assay. It counts as functional, organism-based.
Series [11] has as its system Salmonella typhimurium. Briefly: Antimicrobial activity against Salmonella typhimurium ATCC 14028 by broth microdilution assay. To be noted: Salmonella enterica. It counts as functional, Salmonella enterica subsp. enterica serovar Typhimurium.
Series [12] deals with Escherichia coli. Briefly: Inhibition of protein biosynthesis in Escherichia coli ATCC 25922 assessed as incorporation of [35S]methionine into protein at 2.5 ug/300 ul by in-vivo translation assay. It counts as functional, organism-based.

On to `CC[C@@H](C)[C@@H](NC(=O)[C@H]1CCCN1C(=O)[C@@H](CCCNC(=N)N)NC(=O)[C@H]1CCCN1C(=O)[C@@H](Cc1cnc[nH]1)NC(=O)[C@H]1CCCN1C(=O)[C@H]1CCCN1C(=O)[C@H]1CCCN1C(=O)[C@@H](CCCNC(=N)N)NC(=O)[C@H]1CCCN1C(=O)[C@H]1CCCN1C(=O)[C@@H](Cc1ccc(O)cc1)NC(=O)[C@H]1CCCN1C(=O)[C@@H](CCCNC(=N)N)NC(=O)[C@H]1CCCN1C(=O)[C@@H](CCCCN)NC(=O)CN)C(=O)N[C@H](CCCNC(=N)N)C(=O)N[C@@H](C(=O)O)C(C)C`, for which the MIC in [1], in series [2], in [3], in series [8] and in series [11] was over 200 µM each time. Besides, the Drug uptake in [4] is listed as 2%. In addition, the Ka in [5] worked out at 9.34 ×10⁴ /M/s. In addition, the Kdiss in series [5] was 0.0137 s⁻¹. Also, the Kd in series [6] is 1470 nM. Also, the inhibition result in [7] was “Active”. Also, the inhibition result in [9] and in series [10] was “inactive” in each case.
With H-GKPRPYSPRPSSHPRPIRV-OH, the MIC was 3 µM in series [1]; 0.6 µM in series [2]; 0.2 µM in series [3]; 0.4 µM in [8]; 2 µM in series [11].
In the case of `CN(C)[C@@H]1C(O)=C(C(N)=O)C(=O)[C@@]2(O)C(O)=C3C(=O)c4c(O)cccc4[C@@](C)(O)[C@H]3C[C@@H]12`, in series [12], the inhibition entry is “Active”.
With `CC[C@H](C)[C@H](NC(=O)[C@@H]1CCCN1C(=O)[C@H](CCCNC(=N)N)NC(=O)[C@@H]1CCCN1C(=O)[C@H](Cc1cnc[nH]1)NC(=O)[C@H](CO)NC(=O)[C@H](CO[C@H]1O[C@H](CO)[C@H](O)[C@H](O)[C@H]1NC(C)=O)NC(=O)[C@@H]1CCCN1C(=O)[C@H](CCCNC(=N)N)NC(=O)[C@@H]1CCCN1C(=O)[C@H](CO)NC(=O)[C@H](Cc1ccc(O)cc1)NC(=O)[C@@H]1CCCN1C(=O)[C@H](CCCNC(=N)N)NC(=O)[C@@H]1CCCN1C(=O)[C@H](CCCCN)NC(=O)CN)C(=O)N[C@@H](CCCNC(=N)N)C(=O)N[C@H](C(=O)O)C(C)C` (H-GKPRPYSPRPS(αGalNAc)SHPRPIRV-OH), the minimum inhibitory concentration (MIC) in [1] stood at 5 µM (≈ 11.9 µg/mL); in [2], 1.6 µM (≈ 3.82 µg/mL); in series [3], 0.5 µM (≈ 1.19 µg/mL); in series [8], 1.1 µM (≈ 2.63 µg/mL); in series [11], 6 µM (≈ 14.3 µg/mL).
Taken in the same sequence, the figures for H-GKPRPYSPRPTSHPRPIRV-OH [DROSOCIN] were 3 µM, 0.7 µM, 0.4 µM, 0.5 µM and 2 µM.
With `CC[C@H](C)[C@H](NC(=O)[C@@H]1CCCN1C(=O)[C@H](CCCNC(=N)N)NC(=O)[C@@H]1CCCN1C(=O)[C@H](Cc1cnc[nH]1)NC(=O)[C@@H]1CCCN1C(=O)[C@@H]1CCCN1C(=O)[C@@H]1CCCN1C(=O)[C@H](CCCNC(=N)N)NC(=O)[C@@H]1CCCN1C(=O)[C@@H]1CCCN1C(=O)[C@H](Cc1ccc(O)cc1)NC(=O)[C@@H]1CCCN1C(=O)[C@H](CCCNC(=N)N)NC(=O)[C@@H]1CCCN1C(=O)[C@H](CCCCN)NC(=O)CN)C(=O)N[C@@H](CCCNC(=N)N)C(=O)N[C@H](C(=O)O)C(C)C`, the MIC was found to be 0.6 µM (≈ 1.33 µg/mL) in series [1]; 0.3 µM (≈ 0.664 µg/mL) in series [2]; 0.2 µM (≈ 0.443 µg/mL) in series [3]; 0.3 µM (≈ 0.664 µg/mL) in series [8]; 0.6 µM (≈ 1.33 µg/mL) in series [11]. For the same molecule, in [5], the Ka was 2.45 ×10⁴ /M/s. The Kdiss in [5] was found to be 0.0366 s⁻¹. Moreover, the Kd in [6] came to 1490 nM. Also, the inhibition entry in series [7] and in series [10] was “Active” each time.
As to `CC[C@H](C)[C@H](NC(=O)[C@@H]1CCCN1C(=O)[C@H](CCCNC(=N)N)NC(=O)[C@@H]1CCCN1C(=O)[C@H](Cc1cnc[nH]1)NC(=O)[C@H](CO)NC(=O)[C@@H](NC(=O)[C@@H]1CCCN1C(=O)[C@H](CCCNC(=N)N)NC(=O)[C@@H]1CCCN1C(=O)[C@H](CO)NC(=O)[C@H](Cc1ccc(O)cc1)NC(=O)[C@@H]1CCCN1C(=O)[C@H](CCCNC(=N)N)NC(=O)[C@@H]1CCCN1C(=O)[C@H](CCCCN)NC(=O)CN)[C@@H](C)O[C@@H]1O[C@@H](CO)[C@@H](O)[C@@H](O)[C@@H]1NC(C)=O)C(=O)N[C@@H](CCCNC(=N)N)C(=O)N[C@H](C(=O)O)C(C)C` (H-GKPRPYSPRPT(X1)SHPRPIRV-OH), the MIC was determined as 1.3 µM (≈ 3.12 µg/mL) in [1]; 0.5 µM (≈ 1.2 µg/mL) in [2]; 0.2 µM (≈ 0.48 µg/mL) in series [3]; 0.3 µM (≈ 0.721 µg/mL) in [8]; 1.8 µM (≈ 4.32 µg/mL) in [11]. The Drug uptake in series [4] is on record as 20%. For the same molecule, the Ka in series [5] was found to be 1.94 ×10⁴ /M/s. Further, the Kdiss in [5] amounted to 0.0297 s⁻¹. Also, the dissociation constant (Kd) in [6] stood at 1530 nM.
For `CC[C@H](C)[C@H](NC(=O)[C@@H]1CCCN1C(=O)[C@H](CCCNC(=N)N)NC(=O)[C@@H]1CCCN1C(=O)[C@H](Cc1cnc[nH]1)NC(=O)[C@H](CO)NC(=O)[C@@H](NC(=O)[C@@H]1CCCN1C(=O)[C@H](CCCNC(=N)N)NC(=O)[C@@H]1CCCN1C(=O)[C@H](CO)NC(=O)[C@H](Cc1ccc(O)cc1)NC(=O)[C@@H]1CCCN1C(=O)[C@H](CCCNC(=N)N)NC(=O)[C@@H]1CCCN1C(=O)[C@H](CCCCN)NC(=O)CN)[C@@H](C)O[C@H]1O[C@H](CO)[C@H](O)[C@H](O)[C@H]1NC(C)=O)C(=O)N[C@@H](CCCNC(=N)N)C(=O)N[C@H](C(=O)O)C(C)C` (H-GKPRPYSPRPT(αGalNAc)SHPRPIRV-OH), the minimal inhibitory concentration (MIC) in [1] worked out at 0.3 µM (≈ 0.721 µg/mL); in series [2], 0.3 µM (≈ 0.721 µg/mL); in series [3] it was 0.2 µM (≈ 0.48 µg/mL); in series [8], 0.2 µM (≈ 0.48 µg/mL); in [11] it was 0.3 µM (≈ 0.721 µg/mL). The Drug uptake in series [4] worked out at 16%. Besides, the Ka in series [5] turned out to be 2.04 ×10⁴ /M/s. Further, the Kdiss in [5] stood at 0.0366 s⁻¹. The dissociation constant Kd in series [6] is 1790 nM.

One may read the MIC as the least concentration at which growth counts as inhibited. A low value points to greater potency. By Kd is commonly meant a measure of binding affinity in units of concentration.
